According to patent publication US4678809A, “Injectable fomulations of disulfiram for the treatment of alcoholism” (priority 1985, dated 1987):
Entries after “also recorded” stand apart in the source; their conditions may differ. Where two headings read alike, the source gives them in different places.

What was measured:
[1] = in vivo; cited from earlier work
[2] = Gamma irradiation: sterility and chemical stability; assay type: physicochemical; settings: after gamma irradiation
From the text: In order to be suitable for injection, the formulations must be sterile. […] Gamma irradiation was therefore used as the best available technique.
A Best Industries Gammaradiator 100 Cs-137 irradiator was used. The disulfiram unit doses were placed in the 20×20 cm irradiation chamber, 30 cm from a 1800 curie Cesium-137 source emitting 660 KeV gamma rays. The exposure rate at the point of irradiation was 90 R/min. A filter was placed in the beam to ensure a uniform exposure at the floor of the irradiation chamber. A total exposure of 50,000 R was administered. Prior to injection, approximately 10 cc of sterile normal saline was drawn up into the syringe which was then shaken vigorously to suspend the DSF powder. The resultant slurry could then be readily injected through a wide bore (e.g. 14 gauge) needle.

[3] = cited from earlier work
[4] = test system: alcoholic human subjects; experiment: Clinical study: tolerability, injection site and systemic effects; assay type: in vivo; settings: 250 mg every morning, two subjects
Description: (§1) Two alcoholic human subjects were studied: Subject No.1 and subject No. 2 a person.
(§2) Each subject discontinued oral disulfiram one week before commencing the study. On day zero, each fasted from the preceding midnight, then received a standard alcohol challenge (0.15 G/kg). After eating a meal, and confirming by breath testing (with an Alco-Sensor III) that the blood ethanol concentration had fallen to zero, subject No. 1 received a dose of 1 G disulfiram subcutaneously. The drug was administered in the upper outer quadrant of the right buttock with aseptic precautions using a 14 G needle, after preparing the skin with infiltration of local anesthetic. A control injection of sterile normal saline was administered to the left buttock. Subject No. 2 received 2 G disulfiram in a similar fashion.
(§3) A similar alcohol challenge was then repeated on days 7, 14, 21, and 28 after the injection. A physical examination was performed at each visit and the injection site examined.

[5] = test system: alcoholic human subjects; experiment: Clinical study: subjective and clinical response to alcohol challenge; assay type: in vivo
Description: as §1, §2, §3
Subjective responses--the subject was asked to state aloud the number in the following table which most closely accorded with the way he or she felt at the moment. This response was executed every five minutes, following the alcohol challenge, for a two hour period.

[6] = test system: ethanol in breath; experiment: Clinical study: peak ethanol concentration in the breath after alcohol challenge; assay type: in vivo, human; settings: compared to peak prior to treatment
Description: (§4) The method utilizes a Pyrex glass gas-collecting tube (internal volume approximately 300 cc) sealed at both ends with Teflon® taps. A side-port sealed with a Neoprene rubber septum permits sampling of the contents. The tube is first heated to approximately 70° C. to prevent any condensation from the breath. The subject then blows forcefully into the tube, and the Teflon taps are closed at the end of expiration while the tube is still in the subject's mouth. The tube is then taken to the laboratory, where, after reheating to 70° C., a 2.0 ml sample of the breath is aspirated through the Neoprene septum with a heated syringe and immediately injected into a Gas Chromatograph, for assay of ethanol and acetaldehyde by a standard flame-ionization detection technique. (The method has been described by Phillips et al. in Alcoholism: Clinical & Experimental Research 1984; 8:293-296.)
(§5) Each subject discontinued oral disulfiram one week before commencing the study. On day zero, each fasted from the preceding midnight, then received a standard alcohol challenge (0.15 G/kg). After eating a meal, and confirming by breath testing (with an Alco-Sensor III) that the blood ethanol concentration had fallen to zero, subject No. 1 received a dose of 1 G disulfiram subcutaneously. […]

[7] = Local and systemic toxicity after subcutaneous implantation in rats
From the text: Two groups of animals were studied: a test group receiving the subcutaneous C-14-disulfiram-PLGA implant, and a control group receiving subcutaneous uncompounded C-14-disulfiram. Each group comprised five Wistar CD-1 male rats weighing between 100-120 g. After anesthesia with Penthrane (Abbott Laboratories), a slit was cut in the skin of the interscapular region and a small subcutaneous pocket was dissected, large enough for the introduction of the 1/8 inch diameter rods. Each rat received 500 mg of the 20% composite rods (containing 100 mg C-14-disulfiram and 400 mg PLFA) and the wound was closed with clips. […] No attempt was made to preserve strict asepsis during these procedures.
All rats were individually housed in metabolic cages to facilitate the separate collection of urine and feces. Prior to implantation, their fecal and urine samples were collected to determine background counts. Subsequent samples of all excreted urine and feces were collected on days 1,2,7,9,11, 15,18,22,25,29,32,39,46,53,60,67,74,81 and 88 after implantation. Urine samples were assayed for C-14 labelled material in a Beckman LS-230 liquid scintillation counter, and the excretion was calculated as the mass of implanted disulfiram which contained an equivalent amount of radiolabel. Feces were combusted to 14-CO2 with a Harvey Biological oxidizer and absorbed in oxyfluor-CO2 (New England Nuclear) for counting. […]

[8] = test system: acetaldehyde in breath; experiment: Clinical study: peak acetaldehyde concentration in the breath after alcohol challenge; assay type: in vivo, human
Description: as §4, §5

[9] = test system: aldehyde dehydrogenase; settings: thiol groups, cited from earlier work
[10] = test system: dopamine beta hydroxylase; settings: cited from earlier work
[11] = test system: alcoholic humans; settings: cited from earlier work
[12] = pre-treatment with DSF, Lundwall et al.

S=C=S [carbon disulfide]
excretion of metabolites [1]: a volatile compound excreted in the breath

CCN(CC)C(=S)SSC(=S)N(CC)CC [disulfiram]
chemical stability of irradiated samples [2]: did not demonstrate any reduction in the concentration of disulfiram
solubility of DSF in water [3]: 0.02 G/100 ml
solubility in water (in words) ([3]; listed as DSF): poorly soluble in water; also recorded: near insolubility in water
excretion of metabolites [1]: the breakdown products are promptly excreted
metabolism in the blood and liver [1]: very rapidly metabolized in the blood and liver
adverse effects of oral disulfiram before the study [4]: no adverse effects
onset of diaphoresis after ethanol challenge, Subject No. 1 ([5]; 1 G disulfiram, day 7): 20 min
diaphoresis, Subject No. 1 ([5]; 1 G disulfiram, day 7, duration of the diaphoretic period): 10 min
subjective effects following ethanol challenges, Subject No. 1 ([5]; 1 G disulfiram, entire four weeks): no adverse subjective effects
subjective discomfort following ethanol challenge, Subject No. 2 ([5]; 2 G disulfiram, day 7): dizziness, facial flushing, blurred vision and headache, and their conjunctivae were observed to be injected
subjective discomfort score, Subject No. 2, at 20 minutes ([5]; 2 G disulfiram, day 7, 20 minutes, scale 1 Very well to 5 Terrible, 3 = A little unwell): 3
subjective discomfort score, Subject No. 2, at 40 minutes ([5]; 2 G disulfiram, day 7, 40 minutes, scale 1 Very well to 5 Terrible, 3 = A little unwell): 3
effects following ethanol challenge, Subject No. 2, day 28 ([5]; 2 G disulfiram, day 28): no unpleasant symptoms
positive results of alcohol challenges (symptoms) ([5]; after DSF injection, human subjects): elevated skin temperatures, dizziness, facial flushing, headache, and blurring of vision
peak ethanol concentration in breath, Subject No. 1 ([6]; 1 G): elevated peak in subject No. 1, on days 7 and 14
peak ethanol concentration in breath, Subject No. 2 ([6]; 2 G): only a mild elevation in subject No. 2 on day 7
local or systemic toxicity [7]: No evidence of local or systemic toxicity was observed
peak acetaldehyde concentration in breath, Subject No. 1 ([8]; 1 G, compared to peak prior to treatment): elevated peak in Subject No. 1 on day 7
acetaldehyde following consumption of alcohol ([8]; FIG. 3, after injection of DSF): elevated levels of acetaldehyde
inactivation of aldehyde dehydrogenase [9]: inactivating aldehyde dehydrogenase
inactivation of aldehyde dehydrogenase ([9]; listed as DSF): inactivates aldehyde dehydrogenase by irreversible disulfide interchange reactions with thiol groups
inhibition of dopamine beta hydroxylase [10]: inhibits dopamine beta hydroxylase
end of typical response after consuming alcohol [11, 12]: ≤ 30 min
onset of typical response after consuming alcohol [11, 12]: five to ten
Disulfiram-Ethanol Reaction symptoms ([11]; pretreatment with DSF, then ethyl alcohol, listed as DSF): nausea, palpitations, flushing, hyperventilation and hypotension
